Assay results from ChEMBL document CHEMBL1152412, “Isolation, biomimetic synthesis, and cytotoxic activity of bis(pseudopterane) amines” (J Nat Prod, 2009).
pIC50: −log10 of the molar value.

What was measured:
HeLa = experiment: Cytotoxicity against human HeLa cells after 72 hrs; assay type: functional, cell-based
HCT-116 = experiment: Cytotoxicity against human HCT116 cells after 72 hrs; assay type: functional, cell-based; details: HCT-116, 72 h

| Compound | pIC50 (HeLa) | pIC50 (HCT-116) |
| --- | --- | --- |
| C=C(C)[C@H]1C2=CC(C(=O)OC)=C(C[C@H](C(=C)C)[C@@H](O)[C@@H](N[C@H]3C4=C[C@@H](OC4=O)[C@@H](C(=C)C)C4=CC(C(=O)OC)=C(C[C@H](C(=C)C)[C@H]3O)O4)C3=C[C@H]1OC3=O)O2 [BIS(GORGIACEROL)AMINE] | < 4.00 | 4.55 |
| C=C(C)[C@H]1C2=CC(C(=O)OC)=C(C[C@H](C(=C)C)[C@H](O)/C=C3\C(=O)O[C@@H]1[C@@H]3N[C@H]1C3=C[C@@H](OC3=O)[C@@H](C(=C)C)C3=CC(C(=O)OC)=C(C[C@H](C(=C)C)[C@H]1O)O3)O2 [BIS(PSEUDOPTERANE)AMINE] | 4.38 | 5.40 |
